Measurements reported in EP4159721A1, “CONDENSED 3,3-DIFLUORO-PIPERIDINE DERIVATIVES AS INHIBITORS OF CORONAVIRUSES 3-CHYMOTRYPSIN-LIKE PROTEASE” (Qubit Pharmaceuticals, priority 2021, dated 2023).
Read-outs that look alike come from different tables or passages of the source.

Key:
[1] = target: T1, SARS-CoV-2 3CLpro (Severe acute respiratory syndrome coronavirus 2, UniProt P0DTD1); experiment: Binding assessment by Nuclear Magnetic Resonance (WaterLOGSY and STD); set-up: key: +++: strong binder; ++: binder; +/-: not to very low binder; conditions: NMR (WaterLOGSY, STD); 10 µM of 3CLpro, ligand 100 µM to 2 mM, pH=7.3
[2] = target: T1, SARS-CoV-2 3CLpro; experiment: Binding studies by Mass Spectrometry (ESI-MS, denaturing conditions); conditions: 10 µM 3CLpro, 1:1 or 10:1 compound:protein, 20 min at room temperature
[3] = target: T1, SARS-CoV-2 3CLpro; experiment: FRET-based assay of 3CLpro inhibitory activity; type: biochemical

CSc1ccc2c(c1)NCC(F)(F)C2O (single isomer, unassigned) [Compound 1 or 2, 3,3-difluoro-7-(methylsulfanyl)-1,2,3,4-tetrahydroquinolin-4-ol]
Binding Activity [1]: ++

CSc1cc2c(cn1)C(O)C(F)(F)CN2 (single isomer, unassigned) [Compound 3 or 4, 3,3-difluoro-7-(methylsulfanyl)-1,2,3,4-tetrahydro-1,6-naphthyridin-4-ol]
Binding Activity [1]: +++

CSc1ccc2c(c1)NC(=O)C(F)(F)C2O (single isomer, unassigned) [Compound 5 or 6, 3,3-difluoro-4-hydroxy-7-(methylsulfanyl)-1,2,3,4-tetrahydroquinolin-2-one]
Binding Activity [1]: +++

CSc1cc2c(cn1)C(O)C(F)(F)C(=O)N2 (single isomer, unassigned) [Compound 7 or 8, 3,3-difluoro-4-hydroxy-7-(methylsulfanyl)-1,2,3,4-tetrahydro-1,6-naphthyridin-2-one]
Binding Activity [1]: ++

CSc1ccc2c(c1)NC(=O)C(F)(F)C2C (single isomer, unassigned) [Compound 9 or 10, 3,3-difluoro-4-methyl-7-(methylsulfanyl)-1,2,3,4-tetrahydroquinolin-2-one]
Binding Activity [1]: +++

CSc1ccc2c(c1)NCC(F)(F)C2C (single isomer, unassigned) [Compound 11 or 12, 3,3-difluoro-4-methyl-7-(methylsulfanyl)-1,2,3,4-tetrahydroquinoline]
Binding Activity [1]: ++

O=C1Nc2cc(SC3CC3)ccc2C(O)C1(F)F (single isomer, unassigned) [Compound 15 or 16]
Binding Activity [1]: ++

CSc1cc(F)c2c(c1)NC(=O)C(F)(F)C2O (single isomer, unassigned) [Compound 17 or 18]
Binding Activity [1]: ++

Cc1nn(C)c2c1C(O)C(F)(F)C(=O)N2 (single isomer, unassigned) [Compound 19 or 20, 5,5-difluoro-4-hydroxy-1,3-dimethyl-1H,4H,5H,6H,7H-pyrazolo[3,4-b]pyridin-6-one]
Binding Activity [1]: ++

CSc1cc2c(cn1)C(=O)C(F)(F)C(=O)N2 [Compound 13, 3,3-difluoro-7-(methylsulfanyl)-1,2,3,4-tetrahydro-1,6-naphthyridine-2,4-dione]
Covalent binding [2]: Covalent binding is confirmed | IC50 [3]: 2.27 µM

CSc1ccc2c(c1)NC(=O)C(F)(F)C2=O [Compound 14, 3,3-difluoro-7-(methylsulfanyl)-1,2,3,4-tetrahydroquinoline-2,4-dione]
Covalent binding [2]: Covalent binding is confirmed | IC50 ([3]; 0.02 µM 3CLpro, 5 µM peptide substrate, 20 minutes incubation at room temperature, triplicate, average and standard deviation, read-out: IC50): 0.83 µM

CSc1ccc2c(c1)NC(=O)CC2C (centres unmarked) [reference compound]
Binding Activity [1]: +/-

CSc1ccc2c(c1)NC(=O)CC2=O [reference compound]
Binding Activity [1]: +/-

O=C1Nc2ccccc2C(O)C1(F)F (centres unmarked) [reference compound]
Binding Activity [1]: +/-

CSc1ccc2c(c1)NC(=O)C(F)(F)C2(C)O (centres unmarked) [reference compound]
Binding Activity [1]: +/-
